Data published in patent US20250092065A1, “2-(INDAZOL-5-YL)-6-(PIPERIDIN-4-YL)-1,7-NAPHTHYRIDINE DERIVATIVES AND RELATED COMPOUNDS AS MODULATORS FOR SPLICING NUCLEIC ACIDS AND FOR THE TREATMENT OF PROLIFERATIVE DISEASES” (REMIX THERAPEUTICS INC., priority 2022, published 2025).
Counter-ions that a name gives are not always drawn. Like-named read-outs stand apart in the source and are kept apart here.

Legend:
MYB mRNA = test: RT-qPCR splicing assay, MYB mRNA canonical (CJ) and alternative (AJ) junction; type: cell-based, human; conditions: Homo sapiens; for AC50: MYB alternative junction mRNA, read-out: MYB AJ (increase in AJ mRNA, AC50)
Procedure, shortened: (§1)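 Junction-specific RT-qPCR read-out: CJ and AJ isoform levels, housekeeper-normalized (GAPDH/GUSB/PPIA), ΔΔCt vs DMSO, converted to RQ then % response. Cells: A673 (DMEM/10% FBS, adhered 24 h) or K562 (IMDM/10% FBS). Compound 11-pt 3-fold, top 10 uM, 24 h, 37 °C.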

HTT mRNA = test: RT-qPCR splicing assay, HTT mRNA canonical (CJ) and alternative (AJ) junction; type: cell-based, human; conditions: Homo sapiens; for AC50: HTT alternative junction mRNA, read-out: HTT AJ (increase in AJ mRNA, AC50)
Procedure, shortened: as §1

Target C = test: RT-qPCR canonical junction panel assay, Target C mRNA; type: cell-based; conditions: Table 4, read-out: Target C IC50 (decrease in CJ mRNA levels)
Procedure, shortened: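 IC50 is the concentration giving 50% CJ decrease, from a 4-parameter logistic fit of percent response; response derived from ΔΔCt against housekeeper and DMSO over a fixed ΔCt window, with canonical exon-junction qPCR in compound-treated K562 or A673 cells.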

[1] = MYB canonical junction mRNA, RT-qPCR, read-out: MYB CJ (decrease in CJ mRNA levels, IC50)
[2] = canonical junction qPCR panel, Table 4, read-out: MYB IC50 (decrease in CJ mRNA levels)
[3] = HTT canonical junction mRNA, RT-qPCR, read-out: HTT CJ (decrease in CJ mRNA levels, IC50)
[4] = canonical junction qPCR panel, Table 4, read-out: HTT IC50 (decrease in CJ mRNA levels)

SMILES | IC50 (MYB mRNA; [1]) | IC50 (MYB mRNA; [2]) | IC50 (HTT mRNA; [3]) | IC50 (HTT mRNA; [4]) | IC50 (Target C) | AC50 (MYB mRNA; RT-qPCR) | AC50 (HTT mRNA; RT-qPCR)
CNC(=O)c1nc(-c2cc3cn(C)nc3c(C)c2O)nc2ccc(N3CCNC4(CC4)C3)cc12 [Compound 532, 6-{4,7-diazaspiro[2.5]octan-7-yl}-2-(6-hydroxy-2,7-dimethylindazol-5-yl)-N-methylquinazoline-4-carboxamide] | < 0.1 µM | < 0.1 µM | 0.1 to 1 µM | 0.1 to 1 µM | > 10 µM | < 0.1 µM | 0.1 to 1 µM
CNC(=O)c1nc(-c2cc3cn(C)nc3c(C)c2O)nc2ccc(N3C[C@@H](C)N[C@@H](C)C3)nc12 [Compound 534, 6-[(3R,5S)-3,5-dimethylpiperazin-1-yl]-2-(6-hydroxy-2,7-dimethylindazol-5-yl)-N-methylpyrido[3,2-d]pyrimidine-4-carboxamide] | 0.1 to 1 µM | 0.1 to 1 µM | > 10 µM | > 10 µM | > 10 µM | 0.1 to 1 µM | > 10 µM
CCNC(=O)c1nc(-c2cc3cn(C)nc3c(C)c2O)nc2ccc(N3C[C@@H](C)N[C@@H](C)C3)cc12 [Compound 535, 6-[(3R,5S)-3,5-dimethylpiperazin-1-yl]-N-ethyl-2-(6-hydroxy-2,7-dimethylindazol-5-yl)quinazoline-4-carboxamide] | < 0.1 µM | < 0.1 µM | < 0.1 µM | < 0.1 µM | 1 to 10 µM | < 0.1 µM | 0.1 to 1 µM
CNC(=O)c1nc(-c2cc3cn(C)nc3c(C)c2O)nc2ccc(N3CC[C@@H](NC)C3)cc12 [Compound 536, 2-(6-hydroxy-2,7-dimethylindazol-5-yl)-N-methyl-6-[(3R)-3-(methylamino)pyrrolidin-1-yl]quinazoline-4-carboxamide] | < 0.1 µM | < 0.1 µM | < 0.1 µM | < 0.1 µM | < 0.1 µM | < 0.1 µM | < 0.1 µM
CNC(=O)c1nc(-c2cc3cn(C)nc3c(C)c2O)nc2ccc(N3CC[C@H](NC)C3)cc12 [Compound 537, 2-(6-hydroxy-2,7-dimethylindazol-5-yl)-N-methyl-6-[(3S)-3-(methylamino)pyrrolidin-1-yl]quinazoline-4-carboxamide] | < 0.1 µM | < 0.1 µM | < 0.1 µM | < 0.1 µM | 0.1 to 1 µM | < 0.1 µM | 0.1 to 1 µM
Cc1c(O)c(-c2nc(-c3c[nH]nn3)c3cc(N4CCNCC4)ccc3n2)cc2cn(C)nc12 [Compound 538, 2,7-dimethyl-5-[6-(piperazin-1-yl)-4-(1H-1,2,3-triazol-4-yl)quinazolin-2-yl]indazol-6-ol hydrochloride] | 1 to 10 µM | 1 to 10 µM | 1 to 10 µM | 1 to 10 µM | 1 to 10 µM | 1 to 10 µM | 1 to 10 µM

Second part, led by results:

IC50 (MYB mRNA; [1]) | IC50 (MYB mRNA; [2]) | IC50 (HTT mRNA; [3]) | IC50 (HTT mRNA; [4]) | IC50 (Target C) | SMILES | AC50 (MYB mRNA; RT-qPCR) | AC50 (HTT mRNA; RT-qPCR)
< 0.1 µM | < 0.1 µM | 1 to 10 µM | 1 to 10 µM | > 10 µM | CNC(=O)c1nc(-c2cc3cn(C)nc3cc2O)nc2ccc(N3CCN[C@@H](C)C3)cc12 [Compound 530, 2-(6-hydroxy-2-methylindazol-5-yl)-N-methyl-6-[(3S)-3-methylpiperazin-1-yl]quinazoline-4-carboxamide] | < 0.1 µM | 1 to 10 µM
< 0.1 µM | < 0.1 µM | 1 to 10 µM | 1 to 10 µM | > 10 µM | CNC(=O)c1nc(-c2cc3cn(C)nc3cc2O)nc2ccc(N3C[C@@H](C)N[C@@H](C)C3)cc12 [Compound 531, 6-[(3R,5S)-3,5-dimethylpiperazin-1-yl]-2-(6-hydroxy-2-methylindazol-5-yl)-N-methylquinazoline-4-carboxamide] | < 0.1 µM | > 10 µM
0.1 to 1 µM | 0.1 to 1 µM | 1 to 10 µM | 1 to 10 µM | > 10 µM | CNC(=O)c1nc(-c2cc3cn(C)nc3c(C)c2O)nc2ccc(N3CCNCC3)nc12 [Compound 533, 2-(6-hydroxy-2,7-dimethylindazol-5-yl)-N-methyl-6-(piperazin-1-yl)pyrido[3,2-d]pyrimidine-4-carboxamide] | 0.1 to 1 µM | 1 to 10 µM
